Source: publication PMC11844072, “Novel 5,6-dichlorobenzimidazole derivatives as dual BRAFWT and BRAFV600E inhibitors: design, synthesis, anti-cancer activity and molecular dynamics simulations” (BMC Chemistry, 2025)

How the values were obtained:
Experiment in all cases: NCI 60 single concentration growth inhibition
Type in all cases: cell-based, human
MDA-MB-468 = settings: MDA-MB-468, Breast cancer; for GI%: 10 μM; for inhibition at 10 µM: Homo sapiens, read-out: GI%
In short: (§1)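 Suspension cells such as leukaemia lines are fixed with 80% TCA added to settled cells, to 16% final, while other lines are fixed at 10% TCA. Both are then SRB-stained after 48 h of drug exposure at 37 °C.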

BT-549 = settings: BT-549, Breast cancer; for GI%: 10 μM; for inhibition at 10 µM: Homo sapiens, read-out: GI%
In short: as §1

SK-OV-3 = settings: SK-OV-3, Ovarian cancer; for GI%: 10 μM; for inhibition at 10 µM: Homo sapiens, read-out: GI%
In short: as §1

MCF7 = settings: MCF7, Breast cancer; for GI%: 10 μM; for inhibition at 10 µM: Homo sapiens, read-out: GI%
In short: as §1

ACHN = settings: Renal cancer; for GI%: 10 μM; for inhibition at 10 µM: Homo sapiens, read-out: GI%
In short: as §1

KM12 = settings: KM12, Colon cancer; for GI%: 10 μM; for inhibition at 10 µM: Homo sapiens, read-out: GI%
In short: as §1

SN12C = settings: Renal cancer; for GI%: 10 μM; for inhibition at 10 µM: Homo sapiens, read-out: GI%
In short: as §1

SK-MEL-5 = settings: SK-MEL-5, Melanoma; for GI%: 10 μM; for inhibition at 10 µM: Homo sapiens, read-out: GI%
In short: as §1

UACC-62 = settings: UACC-62, Melanoma; for GI%: 10 μM; for inhibition at 10 µM: Homo sapiens, read-out: GI%
In short: as §1

SK-MEL-28 = settings: SK-MEL-28, Melanoma; for GI%: 10 μM; for inhibition at 10 µM: Homo sapiens, read-out: GI%
In short: as §1

MDA-MB-231/ATCC = settings: Breast cancer; for GI%: 10 μM; for inhibition at 10 µM: Homo sapiens, read-out: GI%
In short: as §1

SF-539 = settings: SF-539, CNS cancer; for GI%: 10 μM; for inhibition at 10 µM: Homo sapiens, read-out: GI%
In short: as §1

T-47D = settings: Breast cancer; for GI%: 10 μM; for inhibition at 10 µM: Homo sapiens, T47D, read-out: GI%
In short: as §1

OVCAR-8 = settings: OVCAR-8, Ovarian cancer; for GI%: 10 μM; for inhibition at 10 µM: Homo sapiens, read-out: GI%
In short: as §1

PC-3 = settings: PC-3, Prostate cancer; for GI%: 10 μM; for inhibition at 10 µM: Homo sapiens, read-out: GI%
In short: as §1

RXF 393 = settings: RXF 393, Renal cancer; for GI%: 10 μM; for inhibition at 10 µM: Homo sapiens, read-out: GI%
In short: as §1

OVCAR-3 = settings: OVCAR-3, Ovarian cancer; for GI%: 10 μM; for inhibition at 10 µM: Homo sapiens, read-out: GI%
Protocol: (§2) The synthesized dichlorobenzimidazoles 10a–p were assayed for their influence on divers cancer cell lines according to the method presented in the Additional file A.
(§3) 5. Screening of cytotoxic activity against a panel of sixty human tumor cell lines
(§4) The selected compounds by NCI were evaluated for their anticancer activity in a two-stage process. First, these compounds were screened against the full NCI 60 cell lines panel at a single high dose of 10 µM. Then, the output from the single dose screen is reported as a mean graph. […]
(§5) Assay protocol. The human tumor cell lines of the cancer screening panel are grown in RPMI 1640 medium containing 5% fetal bovine serum and 2 mM L-glutamine. For a typical screening experiment, cells are inoculated into 96 well microtiter plates in 100 µL at plating densities ranging from 5000 to 40,000 cells/well depending on the doubling time of individual cell lines. After cell inoculation, the microtiter plates are incubated at 37 °C, 5% CO 2, 95% air and 100% relative humidity for 24 h prior to addition of the experimental drugs.
(§6) After 24 h, two plates of each cell line are fixed in situ with TCA, to represent a measurement of the cell population for each cell line at the time of drug addition (Tz). The experimental drugs are solubilized in dimethyl sulfoxide at 400-fold the desired final maximum test concentration and stored frozen prior to use. At the time of drug addition, an aliquot of frozen concentrate is thawed and diluted to twice the desired final maximum test concentration with complete medium containing 50 µg/mL gentamicin. Additional four, 10-fold or ½ log serial dilutions are made to provide a total of five drug concentrations plus control.
(§7) Aliquots of […] of these different drug dilutions are added to the appropriate microtiter wells already containing […] of medium, resulting in the required final drug concentrations.
(§8) Following drug addition, the plates are incubated for an additional 48 h at 37 °C, 5% CO 2, 95% air, and 100% relative humidity. For adherent cells, the assay is terminated by the addition of cold TCA.
(§9) Cells are fixed in situ by the gentle addition of 50 µL of cold 50% (w/v) TCA (final concentration, 10% TCA) and incubated for 60 min at 4 °C. The supernatant is discarded, and the plates are washed five times with tap water and air dried. Sulforhodamine B (SRB) solution ([…]) at 0.4% (w/v) in 1% acetic acid is added to each well, and plates are incubated for 10 min at room temperature. After staining, unbound dye is removed by washing five times with 1% acetic acid and the plates are air dried. Bound stain is subsequently solubilized with 10 mM trizma base, and the absorbance is read on an automated plate reader at a wavelength of 515 nm. For suspension cells, the methodology is […]
(§10) the same except that the assay is terminated by fixing settled cells at the bottom of the wells by gently adding 50 µl of 80% TCA (final concentration, 16% TCA). Using the seven absorbance measurements [time zero, (Tz), control growth, (C), and test growth in the presence of drug at the five concentration levels (Ti)], the percentage growth is calculated at each of the drug concentrations […]
(§11) Percentage growth inhibition is calculated as: [(Ti Tz)/(C–Tz)] x 100 for concentrations for which Ti>/=Tz and [(Ti-Tz)/Tz] x 100 for concentrations for which Ti < Tz. […]
(§12) Results for each compound were reported as a mean graph of the percent growth of the treated cells when compared to the untreated control cells. There after obtaining the results for one dose assay, analysis of historical Development Therapeutics Programme (DTP) was performed and compounds which satisfies predetermined threshold inhibition criteria is selected for NCI full panel 5 dose assay.

HT29 = settings: for GI%: HT29, Colon cancer, 10 μM; for inhibition at 10 µM: Homo sapiens, HT-29, HT29, Colon cancer, read-out: GI%
Protocol: as §2, §3, §4, §5, §6, §7, §8, §9, §10, §11, §12

NCI/ADR-RES = settings: Ovarian cancer; for GI%: 10 μM; for inhibition at 10 µM: Homo sapiens, read-out: GI%
Protocol: as §2, §3, §4, §5, §6, §7, §8, §9, §10, §11, §12

Compound | GI% (MDA-MB-468) | GI% (BT-549) | GI% (SK-OV-3) | GI% (MCF7) [%] | GI% (ACHN) | GI% (KM12) | GI% (SN12C) | GI% (SK-MEL-5) | GI% (UACC-62) [%] | GI% (SK-MEL-28) | GI% (MDA-MB-231/ATCC) | GI% (SF-539) | GI% (T-47D) | GI% (OVCAR-8) | GI% (PC-3) | GI% (RXF 393) | GI% (OVCAR-3) | GI% (HT29) | GI% (NCI/ADR-RES) | inhibition at 10 µM (MDA-MB-468) [%] | also measured
2-(4-((2-(2-(5,6-Dichloro-2-(4-methoxyphenyl)-1H-benzo[d]imidazol-1-yl)acetyl)hydrazono)methyl) -2-methoxyphenoxy)acetic acid [Compound 10m] | – (GI% < 5%) | – (GI% < 5%) | – (GI% < 5%) | 9.09 | – (GI% < 5%) | – (GI% < 5%) | 5.24% | – (GI% < 5%) | 6.42 | – (GI% < 5%) | – (GI% < 5%) | – (GI% < 5%) | – (GI% < 5%) | – (GI% < 5%) | – (GI% < 5%) | – (GI% < 5%) | – (GI% < 5%) | – (GI% < 5%) | – (GI% < 5%) |  | 
2-(5-((2-(2-(5,6-Dichloro-2-(4-methoxyphenyl)-1H-benzo[d]imidazol-1-yl)acetyl)hydrazono)methyl)-2-methoxyphenoxy)acetic acid [Compound 10n] | 12.44% | – (GI% < 5%) | – (GI% < 5%) | 14.21 | – (GI% < 5%) | – (GI% < 5%) | 5.05% | – (GI% < 5%) | 9.71 | – (GI% < 5%) | 11.50% | – (GI% < 5%) | – (GI% < 5%) | – (GI% < 5%) | 10.81% | – (GI% < 5%) | – (GI% < 5%) | – (GI% < 5%) | – (GI% < 5%) |  | 
3-(4-((2-(2-(5,6-Dichloro-2-(4-methoxyphenyl)-1H-benzo[d]imidazol-1-yl)acetyl)hydrazono)methyl)phenoxy)propanoic acid [Compound 10i] | 10.83% | 11.38% | 6.27% | 28.47 | 5.11% | – (GI% < 5%) | – (GI% < 5%) | 14.39% | 10.17 | – (GI% < 5%) | 12.19% | – (GI% < 5%) | 27.22% | – (GI% < 5%) | 19.27% | – (GI% < 5%) | – (GI% < 5%) | – (GI% < 5%) | – (GI% < 5%) |  | 
COc1ccc(-c2nc3cc(Cl)c(Cl)cc3n2CC(=O)NN=Cc2cccc(O)c2)cc1 [Compound 10a, 2-(5,6-Dichloro-2-(4-methoxyphenyl)-1H-benzo[d]imidazol-1-yl)-N'-(3-hydroxybenzylidene)acetohydrazide] |  |  |  |  |  |  |  |  |  |  |  |  |  |  |  |  |  |  |  | 82.1 | inhibition at 10 µM (BT-549): 47.8%; inhibition at 10 µM (SK-OV-3): 35.5%; inhibition at 10 µM (MCF7): 80.6%; inhibition at 10 µM (ACHN): 40%; inhibition at 10 µM (KM12): 41%; inhibition at 10 µM (SN12C): 31.3%; inhibition at 10 µM (SK-MEL-5): 79.7%; inhibition at 10 µM (UACC-62): 40%; inhibition at 10 µM (SK-MEL-28): 39.3%; inhibition at 10 µM (MDA-MB-231/ATCC): 20%; inhibition at 10 µM (SF-539): 36.5%; inhibition at 10 µM (T-47D): 69.7%; inhibition at 10 µM (OVCAR-8): 29.5%; inhibition at 10 µM (PC-3): 57.8%; inhibition at 10 µM (RXF 393): 44.4%; inhibition at 10 µM (OVCAR-3): 36.6%; inhibition at 10 µM (HT29): 41.2%; inhibition at 10 µM (NCI/ADR-RES): 44.5%
COc1ccc(-c2nc3cc(Cl)c(Cl)cc3n2CC(=O)NN=Cc2ccc(O)cc2)cc1 [Compound 10b, 2-(5,6-Dichloro-2-(4-methoxyphenyl)-1H-benzo[d]imidazol-1-yl)-N'-(4-hydroxybenzylidene)acetohydrazide] |  |  |  |  |  |  |  |  |  |  |  |  |  |  |  |  |  |  |  | 90.1 | inhibition at 10 µM (BT-549): 65.6%; inhibition at 10 µM (SK-OV-3): 24.6%; inhibition at 10 µM (MCF7): 74.2%; inhibition at 10 µM (ACHN): 33.4%; inhibition at 10 µM (KM12): 26.3%; inhibition at 10 µM (SN12C): 18%; inhibition at 10 µM (SK-MEL-5): 52.1%; inhibition at 10 µM (UACC-62): 38%; inhibition at 10 µM (SK-MEL-28): 26.4%; inhibition at 10 µM (MDA-MB-231/ATCC): 21.2%; inhibition at 10 µM (SF-539): 32.5%; inhibition at 10 µM (T-47D): 56.4%; inhibition at 10 µM (OVCAR-8): 28%; inhibition at 10 µM (PC-3): 40.7%; inhibition at 10 µM (RXF 393): 41.2%; inhibition at 10 µM (OVCAR-3): 27%; inhibition at 10 µM (HT29): 25.1%; inhibition at 10 µM (NCI/ADR-RES): 28.5%
COc1ccc(-c2nc3cc(Cl)c(Cl)cc3n2CC(=O)NN=Cc2cccc(OC)c2)cc1 [Compound 10c, 2-(5,6-Dichloro-2-(4-methoxyphenyl)-1H-benzo[d]imidazol-1-yl)-N'-(3-methoxybenzylidene)acetohydrazide] |  |  |  |  |  |  |  |  |  |  |  |  |  |  |  |  |  |  |  | 76.1 | inhibition at 10 µM (BT-549): 52.9%; inhibition at 10 µM (SK-OV-3): 10.1%; inhibition at 10 µM (MCF7): 56.6%; inhibition at 10 µM (ACHN): 20.4%; inhibition at 10 µM (KM12): 17.6%; inhibition at 10 µM (SN12C): 9.21%; inhibition at 10 µM (SK-MEL-5): 44.5%; inhibition at 10 µM (UACC-62): 37.2%; inhibition at 10 µM (SK-MEL-28): 20.5%; inhibition at 10 µM (MDA-MB-231/ATCC): 15.1%; inhibition at 10 µM (SF-539): 24.4%; inhibition at 10 µM (T-47D): 45.8%; inhibition at 10 µM (OVCAR-8): 13.5%; inhibition at 10 µM (PC-3): 29.5%; inhibition at 10 µM (RXF 393): 23.1%; inhibition at 10 µM (OVCAR-3): 14.4%; inhibition at 10 µM (HT29): 5.29%; inhibition at 10 µM (NCI/ADR-RES): 21.3%
